In patent US5424073A (Georgetown University, priority 1993, dated 1995):
Converted amounts (≈) assume the structure as drawn.

Legend:
[1] = Stability studies of liposomal and free taxol; type: physicochemical; settings: free taxol 0.6 mg/ml in saline
[2] = tested on: metastatic breast cancer; settings: in vivo; cited from earlier work
[3] = tested on: advanced ovarian tumors; settings: women with advanced ovarian tumors; cited from earlier work
[4] = tested on: L1210 leukemia; settings: in vivo; cited from earlier work
[5] = tested on: P388 leukemia; settings: in vivo; cited from earlier work
[6] = tested on: lymphoma, ovarian and breast cancers; settings: cited from earlier work
[7] = cited from earlier work
[8] = tested on: human MX-1 mammary tumor xenograft; settings: in vivo; cited from earlier work
[9] = tested on: HL-60 cells; type: cell-based, human; settings: 10 μg/ml, FIG. 4
Experimental: Briefly, exponentially growing cells were incubated in 100 mm petri dishes with drug containing medium at 37° C. […] The cell pellets were suspended in 0.5 ml of 2% SDS solution and then sonicated for 5 minutes in a cup-horn sonicator. The cell homogenate was extracted with 2 ml of methanol.

[10] = tested on: tubulin; settings: cited from earlier work
[11] = tested on: Male CD2 F1 mice; assay: Toxicity evaluation of free and liposomal taxol in normal mice; type: in vivo, mouse; settings: 25 mg/kg i.v., repeated day 5 and 9
Experimental: Male CD2 F1 mice weighing 22-25 gm were used in this study. […] Taxol liposomes were prepared using cardiolipin, phosphatidyl choline, and cholesterol. […] The same doses were repeated on mice at day 5 and 9.

[12] = tested on: HL-60/VCR cells; assay: Cytotoxicity in multidrug resistant HL-60/VCR cells; type: cell-based; settings: Homo sapiens, HL60/VCR, 72 hours, FIG. 5
Experimental: The HL-60 VCR cells were grown in media at 37° C. with 5% CO2.
After 72 hours of incubation, cells in each flask were counted by hemocytometer and viability was determined by trypan blue exclusion. Percent survival of treated cells was determined relative to untreated control. Cytotoxic activity was expressed as IC50 which was defined as the concentration of drug resulting 50% survival of the cells compared to control.

[13] = tested on: cell replication; settings: in vitro; cited from earlier work
[14] = cited from earlier work; remark: listed apart in the source
[15] = tested on: HL-60 promyelocytic leukemia cells; assay: Growth inhibition (cytotoxicity) in HL-60 leukemia cells; type: cell-based; settings: Homo sapiens; HL-60, 72 hours, 37° C., trypan blue; FIG. 3
Experimental: HL-60 promyelocytic leukemia cells were grown in tissue culture in RPM1-1640 medium supplemented with 10% fetal bovine serum. All cultures were maintained in plastic tissue culture flasks and kept in an incubator at 37° C. in humidified air containing 5% CO2.
For these experiments, 1×10^5 cells in exponential growth phase were plated into 25 cm^2 flasks. […] Cells were counted in a hemocytometer and viability was determined by trypan blue exclusion. The cell survival was compared to the control cells and IC50 (inhibitory concentration for 50% of the cells) values for each drug was determined.

[16] = tested on: HL-60/VCR cells; assay: Intracellular taxol accumulation in HL-60/VCR cells; type: cell-based, human; settings: 4 hours
Experimental: The cells were suspended in cold PBS and counted, and centrifuged again. The cell pellets were suspended in 0.5 ml of 2% SDS solution and then sonicated for 5 minutes in a cup-horn sonicator (Heat Systems, Farmingdate, N.Y.). Resulting cell homogenate was extracted with 4 ml of methanol, vortexed for 1 minute and centrifuged for 20 minutes at 3000 rpm. The samples were read by using HPLC. The concentration of drug in […] was calculated using a standard calibration curve for drug spiked cells and were then treated similarly.

[17] = tested on: B16 melanoma; settings: i.p. implanted; cited from earlier work

In the case of `CC(=O)O[C@H]1C(=O)[C@@]2(C)[C@H]([C@H](OC(=O)c3ccccc3)[C@]3(O)C[C@H](OC(=O)[C@H](O)[C@@H](NC(=O)c4ccccc4)c4ccccc4)C(C)=C1C3(C)C)[C@]1(OC(C)=O)CO[C@@H]1C[C@@H]2O` (relative stereo) [Taxol, (2aR(2aα,4β,4aβ,6β,9α(αR*,βS*) ,11α, 12α,12aα,12bα))-β-(β-(benzoylamino)-α-hydroxybenzenepropanoic acid 6,12b-bis(acetyloxy)-12-(benzoyloxy)-2a,3,4,4a,5,6,9,10,11,12,12a,12b-dodecahydro-4,11-dihydroxy-4a, 8,13,13-tetramethyl-5-oxo-7,11-methano-14-cyclodeca(3,4)benz(1,2-6)oxet-9-yl ester], the “degradation time in saline” value [1] is given as at most 3 h, the “treatment of metastatic breast cancer” value [2] is given as “considerable promise” and the “tumor shrinkage, share of women” value [3] is given as 30 to 40%. For the same molecule, the “antineoplastic activity against L1210 leukemia” value [4] was “significant antineoplastic activity”, the “antineoplastic activity against P388 leukemia” value [5] was “significant antineoplastic activity” and the “activity in clinical trials” value [6] was “sufficient activity”. The “toxicities despite pretreatment and prolonged infusion” value ([7]; antihistamine and corticosteroids, infusion six to twenty four hours) was “serious toxicities which are often fatal”, the cardiac toxicity ([7]; human, in vivo) was “treatment limiting” and the “antineoplastic activity against MX-1 xenograft” value [8] was “significant antineoplastic activity”. For the same molecule, the “cellular concentration of taxol at 2 and 4 hours” value ([9]; 2 and 4 hours, HL-60, relative to 1 hour) was “same taxol concentration”, the “cellular concentration of taxol at 1 hour” value ([9]; 1 hour, HL-60) was 5.18 μg/10^7 cells and the “effect on tubulin polymerization” value [10] was “markedly enhances all aspects of tubulin polymerization”. The “sclerosis of the vein” value [11] was “sclerosis of the vein”, the “mortality / toxicity by day 12” value ([11]; ten mice per group, FIG. 2) was “three mice in the free taxol group died because of toxicity” and the IC50 [12] was 2.43 µg/mL (≈ 2.85 µM). For the same molecule, the “inhibition of cell replication” value [13] was “potent inhibitor of cell replication in vitro”, the “degradation time once diluted in saline” value ([14]; diluted in saline solution) was at most 24 h and the precipitation from dilution ([14]; diluted in saline solution) was “the drug precipitates from dilution”. The solubility in water ([14]; water) was “limited solubility in water”, the IC50 [15] was 0.0025 µg/mL (≈ 0.00293 µM) and the “decrease in cellular uptake versus liposomal taxol” value [16] was “threefold decrease in cellular uptake”. The “antineoplastic activity against B16 melanoma” value [17] was “significant antineoplastic activity”.
